Where two headings read alike, the source gives them in different places. Where a SMILES comes first, the peptide text is derived from it. The star is where a group is joined. PNA(A) = NCCN(CC(=O)*)C(=O)Cn1cnc2c(N)ncnc21
Legend:
[1] = Flocculation of blood serum and plasma component; conditions: pigs, mice and human
Text: In order to prevent this flocculation and increase the efficacy of the TIM compounds, advantage was taken of the properties of TPGS (alpha tocopherol polyethylene glycol succinate). The adjuvant may also protect the TIM compounds from enzymatic degradation.

[2] = test system: IMR-32 human neuroblastoma cells; conditions: IMR-32
Procedure: The ability of compounds PKI 1, PKI 2 and PKI 3 to inhibit cancer cell proliferation was tested in vitro using the human neuroblastoma cell line IMR-32. Monolayer cell cultures were trypsinized and the test compound was added at the doses indicated in Table 24 and internalized by pinocytic endocytosis using Influx TM pinocytic cell-loading reagent, a kit from Molecular Probes (Eugene, Oreg.) following the manufacturer's recommendations. The indicated doses refer to the concentration in the loading medium, which was used on 1×10^6 cells in a 10 μl volume, i.e. contained 10 μg to 100 ug of test compound that provides […] per cell. […] The cells were treated on day 0 of the experiment. The cells loaded with test compound were cultured in 96 well plates (5,000 cells in 100 μl per well), and the proliferation was monitored over 3 consecutive days. The increase in cell population was quantified using a Hoechst reagent-based assay (modified from Rao and Otto, 1992, Analytical Biochem. 207:186-192) that measures the total DNA of the population. Fluorescence was measured using a Millipore CytoFluor 2350 plate reader (excitation at 360 nm and emission at 460 nm). The measurements were obtained as relative fluorescence intensity, a value that is directly correlated to the total number of cells. Data are expressed as a percentage of matching controls that were supplemented with culture medium alone.
The ability of the compound TIM 9 to inhibit cancer cell proliferation was tested in vitro using the human neuroblastoma cell line IMR-32 and following the general protocol described in Example 14.
The ability of the compound TIM 11 to inhibit IMR-32 cancer cell proliferation was tested in vitro following the general protocol described in Example 14.
The ability of the compound TIM 10 to inhibit cancer cell proliferation was tested in vitro using the human neuroblastoma IMR-32 cell line and following the general protocol described in Example 14.

[3] = test system: H661 human non-small cell lung cancer cells; test: Inhibition of NSCLC cell proliferation (protocol of Example 14); format: cell-based; conditions: for % Cell Survival (±S.D.): H661
Procedure: The ability of compounds PKI 1, PKI 2 and PKI 3 to inhibit cancer cell proliferation was tested in vitro using the human neuroblastoma cell line IMR-32. Monolayer cell cultures were trypsinized and the test compound was added at the doses indicated in Table 24 and internalized by pinocytic endocytosis using Influx TM pinocytic cell-loading reagent, a kit from Molecular Probes (Eugene, Oreg.) following the manufacturer's recommendations. The indicated doses refer to the concentration in the loading medium, which was used on 1×10^6 cells in a 10 μl volume, i.e. contained 10 μg to 100 ug of test compound that provides […] per cell. It is worth noting, however, that only a small proportion of the compound is internalized using this technique, so the actual dose may be lower. The cells were treated on day 0 of the experiment. The cells loaded with test compound were cultured in 96 well plates (5,000 cells in 100 μl per well), and the proliferation was monitored over 3 consecutive days. The increase in cell population was quantified using a Hoechst reagent-based assay (modified from Rao and Otto, 1992, Analytical Biochem. 207:186-192) that measures the total DNA of the population. Fluorescence was measured using a Millipore CytoFluor 2350 plate reader (excitation at 360 nm and emission at 460 nm). The measurements were obtained as relative fluorescence intensity, a value that is directly correlated to the total number of cells. Data are expressed as a percentage of matching controls that were supplemented with culture medium alone.
The ability of the compound TIM 10 to inhibit cancer cell proliferation was tested in vitro using the human non-small cell lung cancer cell line H661 and following the general protocol described in Example 14. The effect of compound TIM 10 on CCD-16Lu cells (normal immortalized human lung fibroblasts) was also assessed by the same protocol. The results after 24, 48 and 72 hours of treatment are shown in Table 31 (H661 cell line) and FIG. 24 (A: CCD-16LU cell line, and B: H661 cell line). The change in dose effect at 48 and 72 hrs in normal cells (see FIG. 24A) for lower doses of compound TIM 10 was interpreted as being due to the probable intracellular degradation of compound TIM 10 which would reduce the level of compound TIM 10 to doses that no longer affect growth. In H661 cells, however, at doses of 1 mM compound TIM 10 was not degraded and its sub localization was not altered as assessed by western blot and immunocytochemistry imaging.

Which “flocculation of a component of blood serum and plasma” value [1] does the source give for `CC[C@H](C)[C@H](NC(=O)[C@H](CO)NC(=O)[C@@H](NC(=O)CNC(=O)[C@@H](NC(=O)[C@H](CC(C)C)NC(=O)[C@H](CC(N)=O)NC(=O)[C@H](CCC(N)=O)NC(=O)[C@H](C)NC(=O)[C@H](CC(=O)O)NC(=O)[C@H](CCCCN)NC(=O)CNC(=O)CNC(=O)CNC(=O)CNC(=O)CNC(=O)CNC(=O)CNC(=O)[C@H](CC(C)C)NC(=O)[C@H](CCCNC(=N)N)NC(=O)[C@H](Cc1ccccc1)NC(=O)[C@H](CCCCNC(=O)CN(CCN)C(=O)Cn1cnc2c(N)ncnc21)NC(=O)[C@H](CCCNC(=N)N)NC(=O)[C@H](CCCNC(=N)N)NC(=O)[C@H](Cc1ccccc1)NC(C)=O)[C@@H](C)CC)[C@@H](C)CC)C(N)=O` [TIM 10] (Ac-FRRK(PNA(A))FRLGGGGGGGKDAQNLIGISI-NH2) here?
Its value is “cause flocculation”.

And the “% Cell Survival” value ([2]; 100 μM, 24 Hours)?
Its value is 93%.

What about the “% Cell Survival” value ([2]; 100 μM, 48 Hours) of the same compound?
The value was 80%.

And the “% Cell Survival” value ([2]; 100 μM, 72 Hours)?
Its value is 77%.

What about the “% Cell Survival” value ([2]; 500 μM, 24 Hours) of the same compound?
The value was 91%.

What about the “% Cell Survival” value ([2]; 500 μM, 48 Hours) of the same compound?
The value was 76%.

What about the “% Cell Survival” value ([2]; 500 μM, 72 Hours) of the same compound?
The value was 73%.

And the “% Cell Survival” value ([2]; 1 mM, 24 Hours)?
Its value is 90%.

What about the “% Cell Survival” value ([2]; 1 mM, 48 Hours) of the same compound?
Its value is 77%.

And the “% Cell Survival” value ([2]; 1 mM, 72 Hours)?
Its value is 70%.

What about the “% Cell Survival” value ([2]; 5 mM, 24 Hours) of the same compound?
The value was 81%.

What about the “% Cell Survival” value ([2]; 5 mM, 48 Hours) of the same compound?
Its value is 76%.

What about the “% Cell Survival” value ([2]; 5 mM, 72 Hours) of the same compound?
Its value is 66%.

What about the “% Cell Survival (±S.D.)” value ([3]; 100 μM, 24 Hours) of the same compound?
The value was 97 (6) %.

And the “% Cell Survival (±S.D.)” value ([3]; 100 μM, 48 Hours)?
The value was 85 (3) %.

What about the “% Cell Survival (±S.D.)” value ([3]; 100 μM, 72 Hours) of the same compound?
Its value is 51 (5) %.

What about the “% Cell Survival (±S.D.)” value ([3]; 500 μM, 24 Hours) of the same compound?
Its value is 91 (5) %.

And the “% Cell Survival (±S.D.)” value ([3]; 500 μM, 48 Hours)?
Its value is 82 (2) %.

And the “% Cell Survival (±S.D.)” value ([3]; 500 μM, 72 Hours)?
Its value is 49 (7) %.

And the “% Cell Survival (±S.D.)” value ([3]; 1 mM, 24 Hours)?
Its value is 85 (9) %.

And the “% Cell Survival (±S.D.)” value ([3]; 1 mM, 48 Hours)?
The value was 82 (2) %.

And the “% Cell Survival (±S.D.)” value ([3]; 1 mM, 72 Hours)?
Its value is 45 (6) %.

What about the “% Cell Survival (±S.D.)” value ([3]; 5 mM, 24 Hours) of the same compound?
Its value is 83 (7) %.

And the “% Cell Survival (±S.D.)” value ([3]; 5 mM, 48 Hours)?
The value was 79 (2) %.

What about the “% Cell Survival (±S.D.)” value ([3]; 5 mM, 72 Hours) of the same compound?
Its value is 43 (5) %.

And the intracellular degradation ([3]; H661 cells, 1 mM, western blot and immunocytochemistry)?
The intracellular degradation was “not degraded”.

Reference: patent publication US20110039770A1, “INHIBITORS OF PROTEIN KINASE C ISOFORMS AND USES THEREOF” (PHARMAGAP INC., priority 2005, published 2011)
